Legend:
Mucor miehei = assay: Growth test in microtiter plates, HA medium, 24 h, visual evaluation; type: cell-based; set-up: key to Aktivität gegenüber M. miehei: +: kein Wachstum im Vergleich zur Wachstumskontrolle; -: Wachstum wie Wachstumskontrolle
M. grisea CM = assay: microbe, parasite or virus in culture; type: cell-based, Magnaporthe grisea; details: Pyricularia grisea, 24 h, read-out: Aktivität gegenüber M. grisea CM
M. grisea H2O = assay: microbe, parasite or virus in culture; type: cell-based, Magnaporthe grisea; details: Pyricularia grisea, H2O, 24 h, read-out: Aktivität gegenüber M. grisea H2O
Lepidium sativum = assay: Crop plant growth test, seeds on filter discs, 4 days, visual evaluation; type: in vivo
Protocol: (§1) Testsubstanzen und Kontrollen werden auf Filterrondellen in Mikrotiterplatten (48 well) vorgelegt und das verwendete Lösungsmittel (DMSO) über Lyophilisation entfernt. Anschließend werden ca. 12 Samen pro Vertiefung (Setaria italical Lepidium sativum) zugeben, mit 200 µl sterilem Leitungswasser pro Vertiefung versetzt, mit einem Deckel versehen und in einer feuchten Kammer für 4 Tage im Pflanzenbrutschrank inkubiert (16h-Licht-8h-Dunkel-Rhythmus). Die Auswertung des Tests erfolgt optisch (+: mind. 75 % Wachstumshemmung im Vergleich zur Kontrolle, -: weniger als 75 % Wachstumshemmung im Vergleich zur Kontrolle.

Setaria italica = assay: as above; type: in vivo
Protocol: as §1

Candida albicans = assay: Growth test in microtiter plates, HA medium, 24 h, visual evaluation; type: cell-based; set-up: key: +: kein Wachstum im Vergleich zur Wachstumskontrolle; -: Wachstum wie Wachstumskontrolle
P. infestans = assay: microbe, parasite or virus in culture; type: cell-based, Phytophthora infestans; details: for inhibition of growth at 5 µg/mL / inhibition of growth at 10 µg/mL / inhibition of growth at 25 µg/mL / inhibition of growth at 50 µg/mL: Phytophthora infestans, 24 h, read-out: Aktivität gegenüber P. infestans
Paecilomyces variotii = assay: Growth test in microtiter plates, HA medium, 24 h, visual evaluation; type: cell-based; set-up: key: +: kein Wachstum im Vergleich zur Wachstumskontrolle; -: Wachstum wie Wachstumskontrolle
Botrytis cinerea = assay: microbe, parasite or virus in culture; type: cell-based; details: for inhibition of growth at 5 µg/mL / inhibition of growth at 10 µg/mL / inhibition of growth at 25 µg/mL / inhibition of growth at 50 µg/mL: Botrytis cinerea, 24 h, read-out: Aktivität gegenüber B. cinerea
Penicillium notatum = assay: Growth test in microtiter plates, HA medium, 24 h, visual evaluation; type: cell-based; set-up: key: +: kein Wachstum im Vergleich zur Wachstumskontrolle; -: Wachstum wie Wachstumskontrolle

Cc1cc(Cl)cc([Se]c2cc(Cl)cc(C)c2O)c1O [Verbindung 22, Bis(3-chlor-6-hydroxy-5-methylphenyl)selen]
Aktivität gegenüber M. miehei (Mucor miehei; 10µg/mL): - | Aktivität gegenüber M. miehei (Mucor miehei; 50µg/mL): - | inhibition of growth at 5 µg/mL (M. grisea CM): > 75% | inhibition of growth at 10 µg/mL (M. grisea CM): > 75% | inhibition of growth at 25 µg/mL (M. grisea CM): > 75% | inhibition of growth at 50 µg/mL (M. grisea CM): > 75% | inhibition of growth at 5 µg/mL (M. grisea H2O): > 75% | inhibition of growth at 10 µg/mL (M. grisea H2O): > 75% | inhibition of growth at 25 µg/mL (M. grisea H2O): > 75% | inhibition of growth at 50 µg/mL (M. grisea H2O): > 75% | Aktivität gegenüber Nutzpflanzen: L. sativum (Lepidium sativum; 10µg/R): - (weniger als 75 % Wachstumshemmung im Vergleich zur Kontrolle) | Aktivität gegenüber Nutzpflanzen: L. sativum (Lepidium sativum; 20µg/R): - (weniger als 75 % Wachstumshemmung im Vergleich zur Kontrolle) | Aktivität gegenüber Nutzpflanzen: L. sativum (Lepidium sativum; 50µg/R): - (weniger als 75 % Wachstumshemmung im Vergleich zur Kontrolle) | Aktivität gegenüber Nutzpflanzen: S. italica (Setaria italica; 10µg/R): - (weniger als 75 % Wachstumshemmung im Vergleich zur Kontrolle) | Aktivität gegenüber Nutzpflanzen: S. italica (Setaria italica; 20µg/R): - (weniger als 75 % Wachstumshemmung im Vergleich zur Kontrolle) | Aktivität gegenüber Nutzpflanzen: S. italica (Setaria italica; 50µg/R): - (weniger als 75 % Wachstumshemmung im Vergleich zur Kontrolle) | Aktivität gegenüber C. albicans (Candida albicans; 10µg/mL): - | Aktivität gegenüber C. albicans (Candida albicans; 50µg/mL): - | inhibition of growth at 5 µg/mL (P. infestans): 0 to 25% | inhibition of growth at 10 µg/mL (P. infestans): > 75% | inhibition of growth at 25 µg/mL (P. infestans): > 75% | inhibition of growth at 50 µg/mL (P. infestans): > 75% | Aktivität gegenüber P. variotii (Paecilomyces variotii; 10µg/mL): - | Aktivität gegenüber P. variotii (Paecilomyces variotii; 50µg/mL): - | mikrobizide Wirksamkeit gegenüber B. cinerea (Botrytis cinerea): mikrobizide Wirksamkeit | inhibition of growth at 5 µg/mL (Botrytis cinerea): > 75% | inhibition of growth at 10 µg/mL (Botrytis cinerea): > 75% | inhibition of growth at 25 µg/mL (Botrytis cinerea): > 75% | inhibition of growth at 50 µg/mL (Botrytis cinerea): > 75% | Aktivität gegenüber P. notatum (Penicillium notatum; 10µg/mL): - | Aktivität gegenüber P. notatum (Penicillium notatum; 50µg/mL): -

Cc1cc(Br)c(O)c([Se]c2cc(C)cc(Br)c2O)c1 [Verbindung 23, Bis(3-brom-2-hydroxy-5-methylphenyl)selen]
Aktivität gegenüber M. miehei (Mucor miehei; 10µg/mL): - | Aktivität gegenüber M. miehei (Mucor miehei; 50µg/mL): - | inhibition of growth at 5 µg/mL (M. grisea CM): > 75% | inhibition of growth at 10 µg/mL (M. grisea CM): > 75% | inhibition of growth at 25 µg/mL (M. grisea CM): > 75% | inhibition of growth at 50 µg/mL (M. grisea CM): > 75% | inhibition of growth at 5 µg/mL (M. grisea H2O): 0 to 25% | inhibition of growth at 10 µg/mL (M. grisea H2O): 25 to 50% | inhibition of growth at 25 µg/mL (M. grisea H2O): > 75% | inhibition of growth at 50 µg/mL (M. grisea H2O): > 75% | Aktivität gegenüber Nutzpflanzen: L. sativum (Lepidium sativum; 10µg/R): - (weniger als 75 % Wachstumshemmung im Vergleich zur Kontrolle) | Aktivität gegenüber Nutzpflanzen: L. sativum (Lepidium sativum; 20µg/R): - (weniger als 75 % Wachstumshemmung im Vergleich zur Kontrolle) | Aktivität gegenüber Nutzpflanzen: L. sativum (Lepidium sativum; 50µg/R): - (weniger als 75 % Wachstumshemmung im Vergleich zur Kontrolle) | Aktivität gegenüber Nutzpflanzen: S. italica (Setaria italica; 10µg/R): - (weniger als 75 % Wachstumshemmung im Vergleich zur Kontrolle) | Aktivität gegenüber Nutzpflanzen: S. italica (Setaria italica; 20µg/R): - (weniger als 75 % Wachstumshemmung im Vergleich zur Kontrolle) | Aktivität gegenüber Nutzpflanzen: S. italica (Setaria italica; 50µg/R): - (weniger als 75 % Wachstumshemmung im Vergleich zur Kontrolle) | Aktivität gegenüber C. albicans (Candida albicans; 10µg/mL): - | Aktivität gegenüber C. albicans (Candida albicans; 50µg/mL): - | inhibition of growth at 5 µg/mL (P. infestans): 0 to 25% | inhibition of growth at 10 µg/mL (P. infestans): 0 to 25% | inhibition of growth at 25 µg/mL (P. infestans): 0 to 25% | inhibition of growth at 50 µg/mL (P. infestans): 0 to 25% | Wirksamkeit gegenüber P. infestans (P. infestans; […]): keine Wirkung | Aktivität gegenüber P. variotii (Paecilomyces variotii; 10µg/mL): - | Aktivität gegenüber P. variotii (Paecilomyces variotii; 50µg/mL): - | inhibition of growth at 5 µg/mL (Botrytis cinerea): 0 to 25% | inhibition of growth at 10 µg/mL (Botrytis cinerea): 0 to 25% | inhibition of growth at 25 µg/mL (Botrytis cinerea): 0 to 25% | inhibition of growth at 50 µg/mL (Botrytis cinerea): 0 to 25% | Aktivität gegenüber P. notatum (Penicillium notatum; 10µg/mL): - | Aktivität gegenüber P. notatum (Penicillium notatum; 50µg/mL): -
